ChEMBL document CHEMBL3046883, “Evaluation of insecticidal activity of diterpenes and lignans from Aristolochia malmeana against Anticarsia gemmatalis” (2008)
Calls of active or inactive are those of the source. No cut-off for these calls is given here.

Test system: Anticarsia gemmatalis
Test: Insecticidal activity against Anticarsia gemmatalis (velvetbean caterpillar) third-instar larvae exposed to compound through topical dosing at mesothorax region assessed as induction of larval mortality
Type: functional

SMILES	LD50	LD10 [µg/µL]	inhibition
C=C1C=C(C)[C@]2(C)CC[C@@H](C)[C@](C)(CC/C(C)=C/C(=O)O)[C@H]2C1	inactive	–	–
O=C1OC[C@H](Cc2ccc3c(c2)OCO3)[C@H]1Cc1ccc2c(c1)OCO2	inactive	–	–
COc1ccc(C[C@H]2COC(=O)[C@@H]2Cc2ccc3c(c2)OCO3)cc1OC [(-)-KUSUNOKININ]	230.1 µg/µL	9.3	Dose-dependent effect
